Experimental findings from PMC6391970, “Design, Synthesis and Characterization of Covalent KDM5 Inhibitors” (Angewandte Chemie (International Ed. in English), 2018) are described below.

For one assay, the target named is T1, KDM2A (Homo sapiens, UniProt Q9Y2K7).
T1 sequence (Q9Y2K7 1-1162): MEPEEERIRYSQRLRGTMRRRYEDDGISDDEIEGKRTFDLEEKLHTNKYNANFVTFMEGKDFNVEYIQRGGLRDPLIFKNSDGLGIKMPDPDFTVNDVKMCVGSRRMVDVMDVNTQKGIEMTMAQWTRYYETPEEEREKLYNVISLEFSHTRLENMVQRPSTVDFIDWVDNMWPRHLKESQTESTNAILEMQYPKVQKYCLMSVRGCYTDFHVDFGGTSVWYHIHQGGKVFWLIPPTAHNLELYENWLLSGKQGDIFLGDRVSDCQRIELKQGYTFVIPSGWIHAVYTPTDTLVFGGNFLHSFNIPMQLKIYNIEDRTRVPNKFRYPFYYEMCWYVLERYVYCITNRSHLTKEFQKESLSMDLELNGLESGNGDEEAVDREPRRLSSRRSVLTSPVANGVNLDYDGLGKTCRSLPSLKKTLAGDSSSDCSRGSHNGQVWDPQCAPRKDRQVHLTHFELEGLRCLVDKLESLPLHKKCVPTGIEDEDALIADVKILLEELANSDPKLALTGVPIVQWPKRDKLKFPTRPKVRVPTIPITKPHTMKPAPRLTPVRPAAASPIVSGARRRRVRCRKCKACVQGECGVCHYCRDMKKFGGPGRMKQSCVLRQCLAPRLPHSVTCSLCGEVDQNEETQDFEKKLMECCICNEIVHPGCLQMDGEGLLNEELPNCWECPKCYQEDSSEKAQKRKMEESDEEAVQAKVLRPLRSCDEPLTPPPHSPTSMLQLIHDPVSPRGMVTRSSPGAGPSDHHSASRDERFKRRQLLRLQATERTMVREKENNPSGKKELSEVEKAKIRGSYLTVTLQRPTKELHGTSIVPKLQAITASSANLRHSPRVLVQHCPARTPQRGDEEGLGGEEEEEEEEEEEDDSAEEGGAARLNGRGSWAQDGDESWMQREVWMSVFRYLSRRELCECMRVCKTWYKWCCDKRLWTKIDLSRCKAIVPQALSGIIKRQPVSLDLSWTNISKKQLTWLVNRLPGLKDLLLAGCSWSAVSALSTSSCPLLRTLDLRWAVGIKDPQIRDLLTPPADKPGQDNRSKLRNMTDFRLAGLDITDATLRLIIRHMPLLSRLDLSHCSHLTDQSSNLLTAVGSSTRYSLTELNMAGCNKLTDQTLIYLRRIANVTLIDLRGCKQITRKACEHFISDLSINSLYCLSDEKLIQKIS
Nature of the assay: KDM AlphaScreen selectivity panel, KDM2A. The format is biochemical. As to conditions: for IC50: AlphaScreen after 120 min pre-incubation, read-out: KDM IC50 2A; for SI over KDM5B, 2A: KDM2A IC50/KDM5B IC50. Here is the method:
(§1) A panel of JmjC KDMs was tested by AlphaScreen to determine the selectivity of the compounds (Table S2). […]
(§2) KDM alpha screen selectivity
(§3) Inhibition of histone demethylases was assessed using the histone demethylase AlphaScreen assay (Amplified Luminescence Proximity Homogenous Assay) as previously reported.[4] The basis of this assay for lysine demethylases have been widely described.[5] In brief, the assay was performed in 384-well plate format using white proxiplates (PerkinElmer), and transfer of titrations of compounds (100 nl) was performed using an ECHO 550 acoustic dispenser […]
(§4) Tween- 20) containing the appropriate demethylase enzyme (see Supplementary table 1 for final concentrations) was transferred to each well of a 384-well proxiplate with a Multidrop™ Combi Reagent Dispenser, and the enzymes allowed to pre-incubate for 120 minutes with compound (final concentration of DMSO was 1%). After that time, the enzyme reaction was initiated by addition of 5 µl of a substrate mix consisting of Ketoglutarate (2-OG), Ferrous Ammonium Sulphate (FAS), L-Ascorbic Acid (LAA) and biotinylated peptide substrate (see Supporting table X for final assay concentrations) and the reaction incubated for the indicated time at room temperature. Reaction was stopped by the addition of 5 μl of assay buffer containing EDTA (7.5 mM) and NaCl (400 mM). Streptavidin Donor beads (0.08 mg/ml) and Protein-A conjugated acceptor beads (0.08 mg/ml) (AlphaScreen General IgG detection kit was from Perkin Elmer) were pre-incubated for 1 hour with an antibody to the product methyl mark (Supplementary Table 1) and the presence of biotin-H3-product was detected by addition of 5 µl of the pre-incubated AlphaScreen beads (final concentrations of 0.02 mg/ml with respect to acceptor and donor beads). Detection was allowed to proceed for 2 hour at room temperature and the assay plates read in a BMG Labtech Pherastar FS plate reader (excitation, 680 nm; emission, 570 […]
(§5) IC50(t) = Ki (1 + K ) . ( η . k .t − 1) (1) […]
(§6) Table S4. AlphaScreen assay conditions for the KDM selectivity panel
A general note: In Alpha technology, singlet oxygen from a donor bead excites a nearby acceptor bead.

A further assay concerns the target T2, KDM4C (Homo sapiens, UniProt Q9H3R0).
T2 sequence (Q9H3R0 1-1056): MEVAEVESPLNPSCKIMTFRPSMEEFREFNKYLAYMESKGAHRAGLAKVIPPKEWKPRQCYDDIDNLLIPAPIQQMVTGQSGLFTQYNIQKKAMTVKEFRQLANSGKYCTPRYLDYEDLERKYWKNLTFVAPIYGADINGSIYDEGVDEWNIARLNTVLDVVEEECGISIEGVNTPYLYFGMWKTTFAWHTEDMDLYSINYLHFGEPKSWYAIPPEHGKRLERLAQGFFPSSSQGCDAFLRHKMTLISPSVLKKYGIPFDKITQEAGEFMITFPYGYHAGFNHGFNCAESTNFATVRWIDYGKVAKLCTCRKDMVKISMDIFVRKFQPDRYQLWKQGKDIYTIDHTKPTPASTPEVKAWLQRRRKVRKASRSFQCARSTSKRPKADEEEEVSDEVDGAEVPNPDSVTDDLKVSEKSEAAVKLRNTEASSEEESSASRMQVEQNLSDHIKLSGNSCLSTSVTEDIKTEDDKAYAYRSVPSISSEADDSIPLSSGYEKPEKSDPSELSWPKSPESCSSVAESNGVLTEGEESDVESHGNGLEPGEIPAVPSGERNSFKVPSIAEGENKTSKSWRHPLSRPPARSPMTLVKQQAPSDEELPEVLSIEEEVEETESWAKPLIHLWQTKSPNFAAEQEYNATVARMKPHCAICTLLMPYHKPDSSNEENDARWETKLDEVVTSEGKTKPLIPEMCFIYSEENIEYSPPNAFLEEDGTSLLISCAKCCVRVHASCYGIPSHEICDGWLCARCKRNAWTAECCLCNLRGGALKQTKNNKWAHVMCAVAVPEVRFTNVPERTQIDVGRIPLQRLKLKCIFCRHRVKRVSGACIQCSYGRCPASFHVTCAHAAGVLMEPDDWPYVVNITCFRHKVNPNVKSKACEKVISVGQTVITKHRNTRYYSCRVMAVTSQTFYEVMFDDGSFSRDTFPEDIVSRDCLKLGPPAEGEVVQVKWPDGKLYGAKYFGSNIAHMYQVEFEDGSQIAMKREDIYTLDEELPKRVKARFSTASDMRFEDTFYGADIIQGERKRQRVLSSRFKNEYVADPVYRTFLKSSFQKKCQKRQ
Nature of the assay: KDM AlphaScreen selectivity panel, KDM4C. The format is biochemical. As to conditions: for IC50: AlphaScreen after 120 min pre-incubation, read-out: KDM IC50 4C; for SI over KDM5B, 4C: KDM4C IC50/KDM5B IC50. The protocol: as §1, §2, §3, §4, §5, §6

The IC50 is the midpoint of a concentration-inhibition curve. Turning to `C=CC(=O)Nc1cccc(CN(C)CCc2cnn(-c3nccc4c(=O)[nH]cnc34)c2)c1` [Compound 4], on KDM2A, the IC50 stood at 11.3 ± 0.3 µM and the “SI over KDM5B, 2A” value is 558. The IC50 at KDM4C turned out to be 1 ± 0.3 µM.

As to `CN(CCc1cnn(-c2nccc3c(=O)[nH]cnc23)c1)Cc1cccc(NC(=O)CCl)c1` [Compound 5], on KDM2A, the 50% inhibitory concentration (IC50) came to 4.4 ± 0.1 µM and the “SI over KDM5B, 2A” value is 451. At KDM4C, the IC50 worked out at 0.3 ± 0.1 µM and the “SI over KDM5B, 4C” value came to 31.

`CN(C)C/C=C/C(=O)Nc1cccc(CN(C)CCc2cnn(-c3nccc4c(=O)[nH]cnc34)c2)c1` [Compound 6]: the IC50 at KDM2A was above 33 µM; on KDM4C, 2.3 ± 0.1 µM.

Take `CC(C)c1c(-c2cnn(CCNC(=O)CCl)c2)[nH]c2c(C#N)cnn2c1=O` [Compound 7]: on KDM2A, the IC50 was above 100 µM and the “SI over KDM5B, 2A” value is above 14113. Further, on KDM4C, the IC50 was determined as 1.8 ± 0.1 µM and the “SI over KDM5B, 4C” value is 253.

For `C=CC(=O)NCCOc1ccc(-c2[nH]c3c(C#N)cnn3c(=O)c2C(C)C)cc1` [Compound 9], at KDM2A, the IC50 is above 100 µM and the “SI over KDM5B, 2A” value is recorded as above 1550. Besides, at KDM4C, the IC50 was found to be 3.2 ± 0.1 µM and the “SI over KDM5B, 4C” value came out at 49.

Turning to `C=CC(=O)N1CCC(n2cc(-c3[nH]c4c(C#N)cnn4c(=O)c3C(C)C)cn2)CC1` [Compound 10], at KDM2A, the IC50 was above 100 µM and the “SI over KDM5B, 2A” value was above 5843. At KDM4C, the IC50 amounted to 4 ± 0.1 µM and the “SI over KDM5B, 4C” value is given as 234.

Consider `CC(C)c1c(-c2cnn(C3CCN(C(=O)CCl)CC3)c2)[nH]c2c(C#N)cnn2c1=O` [Compound 11], for which, on KDM2A, the IC50 was above 60 µM and the “SI over KDM5B, 2A” value is reported as above 6671. Also, at KDM4C, the IC50 is 1.5 ± 0.1 µM and the “SI over KDM5B, 4C” value was 171.
